Results: US10172837B2, “Insulin sensitisers and methods of treatment” (NAIA Metabolic, Inc., priority 2007, dated 2019)

Assays:
3T3-L1 adipocytes = test: 2-Deoxyglucose uptake by 3T3-L1 adipocytes; assay type: cell-based; conditions: for 2-Deoxyglucose uptake (Normalised: Vehicle with no insulin = 100%): DCP 10 μM
Method: Dichlorphenamide was added during serum-starvation. […] Insulin at 0, 0.5 and 10 nM was added for 20 min at 37° C. Uptake of 50 μM 2-deoxy glucose and 0.5 μCi 2-deoxy-[U-^3H] glucose (NEN, PerkinElmer Life Sciences) per well was measured over the final 10 min of insulin stimulation. […] Counts per minute (cpm) were measured by scintillator counter. […] The data is expressed as a mean±SEM. The statistical analysis was performed using an umpaired t-test (2-tailed).

[1] = system: obese Psammomys obesus (Israeli sand rats); test: Oral glucose tolerance test in obese Psammomys obesus; assay type: in vivo
Excerpt: The outbred Israeli sand rat, Psammomys obesus is a unique animal model for the study of obesity and diabetes. When housed under standard laboratory conditions, a proportion of Israeli sand rats become obese and develop type 2 diabetes spontaneously, without requiring high caloric feeding like the diet-induced obese mouse model, or as a consequence of a mutation in a particular gene as in the db/db mouse model. In this regard their evolution into a diabetic state closely resembles the environmental and polygenic human condition. Type 2 diabetic P. obesus are also profoundly insulin resistant, as measured by the area under the blood glucose curve during an oral glucose tolerance test (OGTT). In addition, a proportion of the animals remain lean and healthy under these same conditions, while others develop a range of intermediate phenotypes. This response is similar to that seen in human populations. Diabetic P. obesus are characterised by having elevated blood glucose levels. […] USA). […] Glucose was measured in whole blood using a YSI glucose analyser (Model #2300 STAT PLUS, Yellow Springs Instruments Co., Ohio, USA). The instrument takes a sample aliquot of 25 μl and is calibrated every 10 samples using 5.55 and 8.33 mmol/L glucose standards. The analyser utilises a probe fitted with a 3-layer membrane containing an immobilised enzyme. J3-D-glucose is oxidised by glucose oxidase, which is immobilised on a polycarbonate cellulose membrane, to form glucono-( )-lactone and hydrogen peroxide. The hydrogen peroxide in turn, is oxidised at the platinum anode, producing electrons. The electron flow is linearly proportional to the steady state hydrogen peroxide concentration and therefore to the concentration of glucose in the sample. Insulin levels were measured in plasma obtained after the […] heparin-coated tubes. Plasma insulin concentrations were determined using a commercially-available double antibody radio-immunoassay (RIA) kit. (Linco Research Inc., USA). […] Solutions were then incubated for 2 hours before adding 1 ml of sheep anti-guinea pig antibody (second antibody) and left to incubate again for 30 min at room temperature. Bound and free insulin were then separated by centrifugation at 3,500 g for 20 min (Beckman Centrifuge Model J6B, Beckman Instruments, […], Australia), leaving the bound insulin in a pellet at the bottom of the tube following aspiration of each sample. A gamma counter (Minaxi g Auto-gamma 5000 series. Packard Instrument Company, IL, USA) with a counting time of 1 min was then used to measure the radioactivity of the solid phase pellet.

[2] = system: Diet-Induced Obese (DIO) Mice; test: Fasting plasma glucose in diet-induced obese mice; assay type: in vivo, Mus Musculus
[3] = system: Diet-Induced Obese (DIO) Mice; test: ipGTT (glucose tolerance) in diet-induced obese mice; assay type: in vivo, Mus Musculus
[4] = Body weight of treated diet-induced obese mice; assay type: in vivo, Mus Musculus; conditions: Day 0 or Day 13, DIO mice
Method: (§1) Male C57Bl/6J mice were obtained at 8 weeks of age from Animal Resources Centre (Canning Vale, Western Australia). Animals were individually housed and allowed free movement and ad libitum access to water and food. Animals were maintained on a 12 hour light (6 am-6 pm) and 12 hour dark (6 pm-6 am) cycle. Animals were monitored daily. Body weight, food and water intake were recorded 3 times a week.

db/db mice = test: Fasting plasma glucose in db/db mice; assay type: in vivo, Mus Musculus; conditions: for FPG Day 0: Methazolamide 20 mg/kg group
Excerpt: The db/db mouse model comprises mice with a homozygous mutation of the leptin receptor gene that ablates leptin signalling in the hypothalamus and elsewhere. The db/db mouse model is commonly used to study the genetic and physiological mechanisms of obesity and type II diabetes. […] Leptin acts through the leptin receptor to control whole-body energy homeostasis by regulating both appetite and energy expenditure. Loss of function of the leptin receptor gene results in hyperphagia and slower metabolism, leading to obesity and eventually diabetes. […] Dosing solutions of the test articles: Methazolamide, Metformin and Methazolamide/Metformin were prepared fresh on each dosing day and stored at room temperature, protected from light. The compound was formulated in sterile vehicle: […] Stock solutions were prepared by dissolving the compound in NMP:PEG300 (1:2, v/v). Saline was added to the stock solution prior to administration of the compound. The solutions were mixed by vortexing immediately prior to dosing to ensure a homogeneous suspension of the compound. Male C57Bl/6J db/db mice were obtained at 10 weeks of age from Animal Resources Centre ([…], Western Australia). Animals were individually housed and allowed free movement and ad libitum access to water and food. Animals were maintained on a 12 hour light (6 am-6 pm) and 12 hour dark (6 pm-6 am) cycle. Animals were monitored daily. Body weight, food and water intake were recorded 3 times a week. Mice were fed a standard chow diet, and used after a two week acclimatisation period. […] The fasting plasma glucose levels of the animals was tested prior to commencement of the study and then every 3-4 days during dosing. The animals were fasted for a period of 4 hours after dosing and prior to the taking of a blood sample via a tail nick. Blood glucose levels were monitored using commercially available glucometers (Accuchek Advantage, Roche) based on the electric current generated when a blood drop is spotted on a test strip resulting in conversion of the glucose present in the sample to gluconolactone by the glucose dehydrogenase enzyme, in the presence of the coenzyme (PQQ).

[5] = Body weight of treated db/db mice; assay type: in vivo, Mus Musculus; conditions: Day 0, Day 8 or Day 18, db/db mice
Method: as §1, with “C57Bl/6J db/db” for “C57Bl/6J”, “10” for “8”, “([…],” for “(Canning Vale,”, “week. Mice were fed a standard chow diet, and used after a two week acclimatisation period.” for “week.”

[6] = 20 mg/Kg DCP oral gavage, 0 min after glucose gavage
[7] = 20 mg/Kg DCP oral gavage, 15 min after glucose gavage
[8] = 20 mg/Kg DCP oral gavage, 30 min after glucose gavage
[9] = 20 mg/Kg DCP oral gavage, 45 min after glucose gavage
[10] = 20 mg/Kg DCP oral gavage, 60 min after glucose gavage
[11] = 20 mg/Kg DCP oral gavage, 90 min after glucose gavage
[12] = dichlorphenamide 20 mg/kg oral gavage
[13] = Dichlorphenamide 50 mg/kg oral gavage
[14] = Methazolamide 10 mg/kg oral gavage (Table 5-1)
[15] = Methazolamide 10 mg/kg oral gavage (Table 8-1)
[16] = Methazolamide 20 mg/kg group, before dosing
[17] = Methazolamide 20 mg/kg oral gavage
[18] = Methazolamide 50 mg/kg group, before dosing
[19] = Methazolamide 50 mg/kg oral gavage
[20] = Methazolamide 100 mg/kg group, before dosing
[21] = Methazolamide 100 mg/kg oral gavage
[22] = Methazolamide 10 mg/kg oral gavage (Table 5-2)
[23] = Methazolamide 10 mg/kg oral gavage (Table 8-2)

NS(=O)(=O)c1cc(Cl)c(Cl)c(S(N)(=O)=O)c1 [Dichlorphenamide]
2-Deoxyglucose uptake (Normalised: Vehicle with no insulin = 100%) (3T3-L1 adipocytes; 0.5 nM Insulin): 1468 ± 400^2%
2-Deoxyglucose uptake (Normalised: Vehicle with no insulin = 100%) (3T3-L1 adipocytes; 10 nM Insulin): 1826 ± 97 ^ %
2-Deoxyglucose uptake (Normalised: Vehicle with no insulin = 100%) (3T3-L1 adipocytes; no insulin (basal)): 508 ± 57^1%
effect on basal and insulin stimulated 2-deoxyglucose uptake (3T3-L1 adipocytes; basal, 0.5 nM and 10 nM insulin): enhanced
Plasma Glucose [1, 6]: 3.4 ± 0.2 mM
Plasma Insulin [1, 6]: 48 ± 15 mU/ml
Plasma Glucose [1, 7]: 5.4 ± 0.2 mM
Plasma Insulin [1, 7]: 141 ± 21 mU/ml
Plasma Glucose [1, 8]: 4.7 ± 0.4 mM
Plasma Insulin [1, 8]: 149 ± 49 mU/ml
Plasma Glucose [1, 9]: 5.1 ± 0.3 mM
Plasma Insulin [1, 9]: 123 ± 39 mU/ml
Plasma Glucose [1, 10]: 4.7 ± 0.4 mM
Plasma Insulin [1, 10]: 202 ± 46 mU/ml
Plasma Glucose [1, 11]: 4.3 ± 0.4 mM
Plasma Insulin [1, 11]: 117 ± 22 mU/ml
Plasma Glucose AUC ([1]; 20 mg/Kg DCP oral gavage, OGTT 0-90 min): 119 ± 16 mM·min
Plasma Insulin AUC ([1]; 20 mg/Kg DCP oral gavage, OGTT 0-90 min, listed as head prints (mM · min)): 8,548 ± 2441
effect on glucose tolerance in oral glucose tolerance test ([1]; area under plasma glucose and plasma insulin curve): increased the glucose tolerance
effect on fasting plasma glucose levels of diet-induced obese mice [2]: reduced the fasting plasma glucose levels
FPG Day −1 ([2]; dichlorphenamide 20 mg/kg group, before dosing): 10.05 ± 0.2 mM
Delta FPG Treatment Day 14 vs Day −1 [2, 12]: −17%^1
Delta FPG Treatment vs Vehicle Day 14 [2, 12]: −11%^2
FPG Day 14 [2, 12]: 8.35 ± 0.2 mM
effect on glucose tolerance of diet-induced obese mice [3]: improves the glucose tolerance
AUC Day −1 ([3]; Dichlorphenamide 20 mg/kg group, before dosing, in mM·min): 1350 ± 56
AUC Day 19 ([3]; Dichlorphenamide 20 mg/kg oral gavage, in mM·min): 832 ± 80
AUC Day −1 ([3]; Dichlorphenamide 50 mg/kg group, before dosing, in mM·min): 1345 ± 73
AUC Day 19 Treat vs Veh [3, 13]: −8%
Delta AUC Day 19 vs Day −1 [3, 13]: −32%^1
AUC Day 19 ([3]; Dichlorphenamide 50 mg/kg oral gavage, in mM·min): 908 ± 38
AUC Day 19 Treat vs Veh [3, 12]: −16%
Delta AUC Day 19 vs Day −1 [3, 12]: −38%^2

CC(=O)/N=c1\sc(S(N)(=O)=O)nn1C [Methazolamide, 5-acetylimino-4-methyl-Δ^2-1,3,4-thiadiazoline-2-sulfonamide]
effect on fasting plasma glucose levels of diet-induced obese mice [2]: reduced the fasting plasma glucose levels
FPG Day −1 ([2]; Methazolamide 10 mg/kg group, before dosing (Table 5-1)): 6.92 ± 0.55 mM
FPG Day −1 ([2]; Methazolamide 10 mg/kg group, before dosing (Table 8-1)): 6.1 ± 0.5 mM
Delta FPG Treatment Day 13 vs Day −1 [2, 14]: 12%
FPG Day 13 [2, 14]: 7.75 ± 0.43 mM
FPG Treatment vs Vehicle Day 13 [2, 14]: 1%
Delta FPG Treatment Day 13 vs Day −1 [2, 15]: 8%
Delta FPG Treatment vs Vehicle Day 13 [2, 15]: −12%
FPG Day 13 [2, 15]: 6.6 ± 0.4 mM
FPG Day −1 [2, 16]: 7.28 ± 0.47 mM
Delta FPG Treatment Day 13 vs Day −1 [2, 17]: −5%
FPG Day 13 [2, 17]: 6.90 ± 0.24 mM
FPG Treatment vs Vehicle Day 13 [2, 17]: −10%^
FPG Day −1 [2, 18]: 7.20 ± 0.71 mM
Delta FPG Treatment Day 13 vs Day −1 [2, 19]: −13%
FPG Day 13 [2, 19]: 6.28 ± 0.31 mM
FPG Treatment vs Vehicle Day 13 [2, 19]: −18%^1
FPG Day −1 [2, 20]: 7.63 ± 0.55 mM
Delta FPG Treatment Day 13 vs Day −1 [2, 21]: −21%
FPG Day 13 [2, 21]: 6.05 ± 0.15 mM
FPG Treatment vs Vehicle Day 13 [2, 21]: −21%^2
effect on glucose tolerance of diet-induced obese mice [3]: increased the glucose tolerance
AUC Day −1 ([3]; Methazolamide 10 mg/kg group, before dosing (Table 5-2)): 1038 ± 129 mM·min
AUC Day −1 ([3]; Methazolamide 10 mg/kg group, before dosing (Table 8-2)): 1190 ± 62 mM·min
AUC Day 13 [3, 22]: 901 ± 139 mM·min
Delta AUC Treatment Day 13 vs Day −1 [3, 22]: −13%^
Delta AUC Treatment vs Vehicle Day 13 [3, 22]: −8%
AUC Day 13 [3, 23]: 1131 ± 95 mM·min
AUC Day 13 Treat vs Veh [3, 23]: −6%
Delta AUC Day 13 vs Day −1 [3, 23]: −5%
AUC Day −1 [3, 16]: 1070 ± 77 mM·min
AUC Day 13 [3, 17]: 619 ± 106 mM·min
Delta AUC Treatment Day 13 vs Day −1 [3, 17]: −42%^1
Delta AUC Treatment vs Vehicle Day 13 [3, 17]: −37%^1
AUC Day −1 [3, 18]: 1073 ± 112 mM·min
AUC Day 13 [3, 19]: 710 ± 87 mM·min
Delta AUC Treatment Day 13 vs Day −1 [3, 19]: −34%^1
Delta AUC Treatment vs Vehicle Day 13 [3, 19]: −27%^1
AUC Day −1 [3, 20]: 1080 ± 59 mM·min
AUC Day 13 [3, 21]: 691 ± 60 mM·min
Delta AUC Treatment Day 13 vs Day −1 [3, 21]: −36%^2
Delta AUC Treatment vs Vehicle Day 13 [3, 21]: −29%^1
difference in body weight between treated groups [4]: no difference in body weight
FPG Day 0 (db/db mice; before dosing (Table 9-1)): 23.93 ± 1.6 mM
FPG Day 0 (db/db mice; before dosing (Table 9-2)): 23.93 ± 1.6 mM
Delta FPG Treatment Day 8 vs Day 0 (db/db mice; [17]): −32%^1
Delta FPG Treatment Day 18 vs Day 0 (db/db mice; [17]): −29%^1
FPG Day 8 (db/db mice; [17]): 16.30 ± 1.8 mM
FPG Day 18 (db/db mice; [17]): 17.00 ± 2.5 mM
FPG Treatment vs Vehicle Day 8 (db/db mice; [17]): −30%^4
FPG Treatment vs Vehicle Day 18 (db/db mice; [17]): −38%^3
effect on fasting plasma glucose levels of db/db mice (db/db mice; after 8 days of treatment): reduced the fasting plasma glucose levels
effect on fasting plasma glucose levels of db/db mice (db/db mice; after 18 days of treatment): reduced the fasting plasma glucose levels
difference in body weight vs Vehicle group [5]: no difference in body weight
